Data on 14 molecules can be found in ChEMBL document CHEMBL1909046, “DrugMatrix in vitro pharmacology data”.

Test [1] has as its target T1, C-C chemokine receptor type 4 (Homo sapiens, UniProt P51679). Note: in other assays of this panel Not Active means under 50% inhibition at 10 µM.
T1 sequence (P51679 whole entry): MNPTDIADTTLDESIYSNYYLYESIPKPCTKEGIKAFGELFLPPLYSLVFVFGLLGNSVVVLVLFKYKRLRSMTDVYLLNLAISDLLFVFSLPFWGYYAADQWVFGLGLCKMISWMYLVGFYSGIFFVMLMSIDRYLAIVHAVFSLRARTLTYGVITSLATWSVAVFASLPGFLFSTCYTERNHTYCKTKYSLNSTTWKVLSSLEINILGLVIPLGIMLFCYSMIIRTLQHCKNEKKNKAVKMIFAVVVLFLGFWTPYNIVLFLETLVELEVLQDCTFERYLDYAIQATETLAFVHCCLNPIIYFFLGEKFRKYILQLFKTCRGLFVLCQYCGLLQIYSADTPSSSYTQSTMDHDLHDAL
In kind it is cell membranes, Chem-1, Membrane. Conditions: chem-1.

The target in test [2] is 5-hydroxytryptamine receptor 2B (Homo sapiens, UniProt P41595). Format: cell membranes, CHO-K1, Membrane. Conditions: for IC50 / Ki: cho-k1; for pIC50: read-out: IC50; for pKi: read-out: Ki. For all read-outs here: in other assays of this panel Not Active means under 50% inhibition at 10 µM.
5-hydroxytryptamine receptor 2B, sequence (P41595 whole entry): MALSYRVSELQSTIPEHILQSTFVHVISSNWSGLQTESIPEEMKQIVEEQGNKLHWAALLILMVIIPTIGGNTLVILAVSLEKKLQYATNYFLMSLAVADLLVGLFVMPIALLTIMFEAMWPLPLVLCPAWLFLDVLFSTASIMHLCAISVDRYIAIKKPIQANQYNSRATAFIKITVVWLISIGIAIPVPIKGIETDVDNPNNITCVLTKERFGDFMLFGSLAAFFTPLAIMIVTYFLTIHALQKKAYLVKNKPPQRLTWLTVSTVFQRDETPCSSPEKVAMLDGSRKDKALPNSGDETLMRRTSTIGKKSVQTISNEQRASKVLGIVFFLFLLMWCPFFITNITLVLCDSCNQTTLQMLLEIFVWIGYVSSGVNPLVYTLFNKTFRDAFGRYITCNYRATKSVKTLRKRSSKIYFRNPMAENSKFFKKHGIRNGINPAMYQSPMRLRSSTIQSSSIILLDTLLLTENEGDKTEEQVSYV
The target in test [3] is T2, Interstitial collagenase (Homo sapiens, UniProt P03956).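 Note: MMP-1 enzyme inhibition assay using a peptide substrate; in other assays of this panel Not Active means under 50% inhibition at 10 µM.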
T2 sequence (P03956 whole entry): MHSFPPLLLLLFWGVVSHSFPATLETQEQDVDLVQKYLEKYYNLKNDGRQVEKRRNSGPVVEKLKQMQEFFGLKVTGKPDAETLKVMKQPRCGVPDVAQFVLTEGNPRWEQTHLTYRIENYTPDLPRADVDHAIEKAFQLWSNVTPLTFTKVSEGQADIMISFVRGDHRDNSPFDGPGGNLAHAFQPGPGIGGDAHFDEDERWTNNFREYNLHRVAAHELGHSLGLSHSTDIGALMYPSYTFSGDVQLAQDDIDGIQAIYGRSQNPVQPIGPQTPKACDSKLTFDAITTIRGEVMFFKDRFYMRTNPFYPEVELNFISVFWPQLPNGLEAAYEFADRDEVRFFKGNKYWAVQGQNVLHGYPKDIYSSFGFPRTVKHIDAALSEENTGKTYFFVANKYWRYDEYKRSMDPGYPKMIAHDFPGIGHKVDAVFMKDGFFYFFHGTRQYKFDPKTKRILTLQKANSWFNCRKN
Put plainly: biochemical. In kind it is tissue-based, Rheumatoid synovial fibroblasts.

For test [4], the target named is T3, Leukotriene C4 synthase (Cavia porcellus, UniProt A6XA80).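 Note: enzyme inhibition assay of leukotriene C4 synthase, using LTA4 as the substrate; in other assays of this panel Not Active means under 50% inhibition at 10 µM.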
T3 sequence (A6XA80 whole entry): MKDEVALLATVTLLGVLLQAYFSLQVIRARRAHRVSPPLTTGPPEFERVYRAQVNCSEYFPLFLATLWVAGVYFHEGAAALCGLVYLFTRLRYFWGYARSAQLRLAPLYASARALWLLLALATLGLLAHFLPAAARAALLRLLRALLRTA
Format: tissue-based, Lung.

A short description of test [5]: DRUGMATRIX: Phosphodiesterase PDE4 enzyme inhibition (substrate: [3H]cAMP + cAMP). Conditions: u-937; Not Active = under 50% inhibition at 10 µM.
In test [6] the target is Matrix metalloproteinase-9 (Homo sapiens, UniProt P14780). Put plainly: biochemical. Format: cell-based.
Matrix metalloproteinase-9, sequence (P14780 whole entry): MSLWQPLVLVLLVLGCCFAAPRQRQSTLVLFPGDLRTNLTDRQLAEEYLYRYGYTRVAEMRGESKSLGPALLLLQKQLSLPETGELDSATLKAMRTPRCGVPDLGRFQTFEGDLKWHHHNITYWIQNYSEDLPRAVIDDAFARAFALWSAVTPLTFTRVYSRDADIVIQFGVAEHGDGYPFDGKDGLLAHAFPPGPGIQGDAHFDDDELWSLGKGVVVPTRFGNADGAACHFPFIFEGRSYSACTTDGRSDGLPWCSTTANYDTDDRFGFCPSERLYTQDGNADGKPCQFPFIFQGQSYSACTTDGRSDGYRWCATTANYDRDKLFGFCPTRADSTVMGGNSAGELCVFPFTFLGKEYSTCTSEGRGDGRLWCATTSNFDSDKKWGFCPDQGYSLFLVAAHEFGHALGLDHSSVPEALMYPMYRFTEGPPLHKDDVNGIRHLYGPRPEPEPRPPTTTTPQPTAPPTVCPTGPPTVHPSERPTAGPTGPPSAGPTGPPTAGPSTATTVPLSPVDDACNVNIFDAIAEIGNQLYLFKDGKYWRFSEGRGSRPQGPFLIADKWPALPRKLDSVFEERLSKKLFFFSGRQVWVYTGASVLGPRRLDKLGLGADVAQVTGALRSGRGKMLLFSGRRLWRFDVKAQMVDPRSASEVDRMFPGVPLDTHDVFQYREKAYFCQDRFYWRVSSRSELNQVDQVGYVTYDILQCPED

pIC50, pKi: −log10 of the molar value.

Regarding `CCn1cc(C(=O)O)c(=O)c2cc(F)c(N3CCNCC3)cc21` [NORFLOXACIN], the IC50 result in test [1], in test [2], in test [3], in test [4], in test [5] and in test [6] was “Not Active” throughout. In addition, the Ki entry in test [5] is “Not Active”.

With `NC1=NC(=O)C(c2ccccc2)O1` (stereo not given) [PEMOLINE], the IC50 entry in test [1], in test [2], in test [3], in test [4], in test [5] and in test [6] was “Not Active” throughout. The Ki entry in test [5] was “Not Active”.

Take `Nc1nc2c(ncn2CCC(CO)CO)c(=O)[nH]1` [PENCICLOVIR]: the IC50 entry in test [1], in test [2], in test [3], in test [4], in test [5] and in test [6] was “Not Active” in each case. Besides, the Ki entry in test [5] is given as “Not Active”.

Take `C=C(C)C1(O)OC(=O)C=C1OC` (stereo not given) [PENICILLIC ACID]: the IC50 entry in test [1], in test [2], in test [3], in test [4], in test [5] and in test [6] was “Not Active” throughout. The Ki entry in test [5] was “Not Active”.

For the molecule `CC1(C)S[C@@H]2[C@H](NC(=O)Cc3ccccc3)C(=O)N2[C@H]1C(=O)O` [PENICILLIN G], the IC50 entry in test [1], in test [2], in test [3], in test [4], in test [5] and in test [6] was “Not Active” each time. For the same molecule, the Ki entry in test [5] was “Not Active”.

`CCCN1C[C@H](CSC)C[C@@H]2c3cccc4[nH]cc(c34)C[C@H]21` [PERGOLIDE]: the IC50 entry in test [1], in test [3], in test [4], in test [5] and in test [6] was “Not Active” each time. Moreover, the pIC50 in test [2] is 7.12. For the same molecule, in test [2], the pKi was 7.31. Further, in test [5], the Ki result is “Not Active”.

In the case of `C1CCC(C(CC2CCCCN2)C2CCCCC2)CC1` (stereo not given) [PERHEXILINE], the IC50 result in test [1], in test [2], in test [3], in test [4], in test [5] and in test [6] was “Not Active” throughout. The Ki entry in test [5] is “Not Active”.

For the molecule `CCOc1ccc(NC(C)=O)cc1` [PHENACETIN], the IC50 entry in test [1], in test [2], in test [3], in test [4], in test [5] and in test [6] was “Not Active” throughout. Besides, the Ki entry in test [5] was “Not Active”.

Regarding `CNNCc1ccc(C(=O)NC(C)C)cc1` [PROCARBAZINE], the IC50 entry in test [1], in test [2], in test [3], in test [4], in test [5] and in test [6] was “Not Active” in each case. Besides, the Ki result in test [5] was “Not Active”.

`CN(C)CCCN1c2ccccc2Sc2ccccc21` [PROMAZINE]: the IC50 entry in test [1], in test [3], in test [4], in test [5] and in test [6] was “Not Active” in each case. Moreover, the pIC50 in test [2] is 6.46. Also, the pKi in test [2] was 6.66. Further, in test [5], the Ki entry was “Not Active”.

Regarding `CC(O)CO` (stereo not given) [PROPYLENE GLYCOL], the IC50 result in test [1], in test [2], in test [3], in test [4], in test [5] and in test [6] was “Not Active” each time. The Ki result in test [5] is given as “Not Active”.

Regarding CADMIUM ACETATE, the IC50 result in test [1], in test [2], in test [3], in test [4], in test [5] and in test [6] was “Not Active” in each case. In addition, the Ki entry in test [1], in test [2], in test [3], in test [4], in test [5] and in test [6] was “Not Active” in each case.

With LEAD (II) ACETATE, the IC50 result in test [1], in test [2], in test [3], in test [4], in test [5] and in test [6] was “Not Active” each time. Besides, the Ki result in test [1], in test [2], in test [3], in test [4], in test [5] and in test [6] was “Not Active” in each case.

As to LIPOPOLYSACCHARIDE E. COLI O55:B5, the IC50 result in test [1], in test [2], in test [3], in test [4], in test [5] and in test [6] was “Not Active” in each case. Moreover, the Ki result in test [1], in test [2], in test [3], in test [4], in test [5] and in test [6] was “Not Active” in each case.

For orientation: pIC50 means −log10 of the IC50, conventionally taken in molar units. One may read the pKi as the Ki on a negative log10 scale, so that one unit is a factor of ten.
